Three molecules from ChEMBL document CHEMBL5653631, “A Potent and Selective ULK1 Inhibitor Suppresses Autophagy and Sensitizes Cancer Cells to Nutrient Stress” (iScience, 2018) can be followed below.

For assay [1], the target named is Mitogen-activated protein kinase kinase kinase 9 (Homo sapiens) (UniProt P80192). Description: Inhibition of human recombinant MLK1 at 40 nM related to control ULK1.
Assay [2] concerns the target PAS domain-containing serine/threonine-protein kinase (Homo sapiens) (UniProt Q96RG2). Briefly: Inhibition of human recombinant PASK at 40 nM related to control ULK1.
The target in assay [3] is T1, Phosphorylase b kinase gamma catalytic chain, liver/testis isoform (Homo sapiens) (UniProt P15735).
T1 sequence (whole entry): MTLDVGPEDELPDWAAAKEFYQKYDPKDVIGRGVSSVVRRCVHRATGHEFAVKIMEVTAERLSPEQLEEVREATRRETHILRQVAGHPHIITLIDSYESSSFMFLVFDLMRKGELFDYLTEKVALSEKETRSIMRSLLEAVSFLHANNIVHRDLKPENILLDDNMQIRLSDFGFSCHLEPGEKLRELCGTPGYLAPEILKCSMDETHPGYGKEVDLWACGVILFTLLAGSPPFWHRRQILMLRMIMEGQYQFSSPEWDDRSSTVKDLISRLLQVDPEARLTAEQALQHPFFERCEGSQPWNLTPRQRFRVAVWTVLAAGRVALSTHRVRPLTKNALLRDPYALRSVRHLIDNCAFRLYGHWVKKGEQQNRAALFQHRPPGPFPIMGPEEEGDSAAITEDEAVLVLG
Briefly: Inhibition of human recombinant PHKg2 at 40 nM related to control ULK1.

The target in assay [4] is Rho-associated protein kinase 2 (Homo sapiens) (UniProt O75116). Briefly: Inhibition of human recombinant ROCK2 at 40 nM related to control ULK1.
Assay [5] concerns the target 3-phosphoinositide-dependent protein kinase 1 (Homo sapiens) (UniProt O15530). Description: Inhibition of human recombinant PDK1 at 40 nM in presence of ATP by radiometric assay relative to control.
Assay [6] addresses T2, Serine/threonine-protein kinase ULK2 (Homo sapiens) (UniProt Q8IYT8).
T2 sequence (whole entry): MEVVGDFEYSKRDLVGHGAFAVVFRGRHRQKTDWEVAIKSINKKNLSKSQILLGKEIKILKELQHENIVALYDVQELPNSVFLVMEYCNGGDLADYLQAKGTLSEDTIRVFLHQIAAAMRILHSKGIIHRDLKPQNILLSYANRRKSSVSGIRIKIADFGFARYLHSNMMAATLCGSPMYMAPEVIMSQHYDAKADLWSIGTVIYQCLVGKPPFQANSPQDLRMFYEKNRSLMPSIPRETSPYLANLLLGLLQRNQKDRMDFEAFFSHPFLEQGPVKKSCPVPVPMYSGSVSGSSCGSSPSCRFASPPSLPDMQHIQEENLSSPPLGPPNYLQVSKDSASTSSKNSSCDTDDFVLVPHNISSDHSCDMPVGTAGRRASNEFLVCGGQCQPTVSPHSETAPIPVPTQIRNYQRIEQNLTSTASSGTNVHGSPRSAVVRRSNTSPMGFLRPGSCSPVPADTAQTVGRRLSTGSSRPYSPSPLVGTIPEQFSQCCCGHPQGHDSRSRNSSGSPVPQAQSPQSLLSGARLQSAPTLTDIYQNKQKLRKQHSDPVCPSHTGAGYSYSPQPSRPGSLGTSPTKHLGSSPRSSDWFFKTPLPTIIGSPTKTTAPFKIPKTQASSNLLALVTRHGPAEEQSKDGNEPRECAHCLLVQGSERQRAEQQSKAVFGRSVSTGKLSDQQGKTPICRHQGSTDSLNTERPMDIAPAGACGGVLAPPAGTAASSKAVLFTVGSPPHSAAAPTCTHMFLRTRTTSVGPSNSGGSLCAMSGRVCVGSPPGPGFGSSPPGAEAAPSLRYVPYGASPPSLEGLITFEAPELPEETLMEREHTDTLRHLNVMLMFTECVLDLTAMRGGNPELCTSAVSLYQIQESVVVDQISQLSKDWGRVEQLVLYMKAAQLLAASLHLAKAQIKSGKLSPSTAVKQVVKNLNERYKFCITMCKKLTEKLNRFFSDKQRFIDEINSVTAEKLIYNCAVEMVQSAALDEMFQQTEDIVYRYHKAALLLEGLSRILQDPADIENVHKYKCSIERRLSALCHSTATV
Briefly: Inhibition of human recombinant ULK2 at 500 nM in presence of ATP by radiometric assay relative to control.

Assay [7] addresses RAC-alpha serine/threonine-protein kinase (Homo sapiens) (UniProt P31749). Briefly: Inhibition of human recombinant AKT1 at 500 nM related to control ULK1.
The target of assay [8] is T3, Inhibitor of nuclear factor kappa-B kinase subunit alpha (Homo sapiens) (UniProt O15111).
T3 sequence (whole entry): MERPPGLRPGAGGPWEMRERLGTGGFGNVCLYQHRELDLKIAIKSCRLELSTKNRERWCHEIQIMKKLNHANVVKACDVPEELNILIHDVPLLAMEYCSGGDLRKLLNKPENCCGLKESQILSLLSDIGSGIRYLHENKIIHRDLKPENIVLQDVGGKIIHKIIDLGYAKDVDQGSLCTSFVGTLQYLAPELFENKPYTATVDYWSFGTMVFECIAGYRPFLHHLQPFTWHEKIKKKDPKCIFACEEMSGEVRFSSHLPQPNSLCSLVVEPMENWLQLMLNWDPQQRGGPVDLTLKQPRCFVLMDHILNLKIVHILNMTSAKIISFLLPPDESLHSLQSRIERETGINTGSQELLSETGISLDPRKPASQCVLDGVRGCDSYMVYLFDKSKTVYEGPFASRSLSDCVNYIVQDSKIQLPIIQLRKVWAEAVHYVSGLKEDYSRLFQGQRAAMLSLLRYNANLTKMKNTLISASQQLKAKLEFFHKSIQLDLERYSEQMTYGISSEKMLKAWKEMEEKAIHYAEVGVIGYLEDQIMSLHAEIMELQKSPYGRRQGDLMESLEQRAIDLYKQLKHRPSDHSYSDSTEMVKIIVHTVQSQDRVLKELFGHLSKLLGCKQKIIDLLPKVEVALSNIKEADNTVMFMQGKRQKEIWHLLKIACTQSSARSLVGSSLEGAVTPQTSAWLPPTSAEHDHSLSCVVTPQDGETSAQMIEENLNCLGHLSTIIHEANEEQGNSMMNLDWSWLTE
Briefly: Inhibition of human recombinant IKKa at 500 nM related to control ULK1.

The target in assay [9] is T4, Tribbles homolog 2 (Homo sapiens) (UniProt Q92519).
T4 sequence (whole entry): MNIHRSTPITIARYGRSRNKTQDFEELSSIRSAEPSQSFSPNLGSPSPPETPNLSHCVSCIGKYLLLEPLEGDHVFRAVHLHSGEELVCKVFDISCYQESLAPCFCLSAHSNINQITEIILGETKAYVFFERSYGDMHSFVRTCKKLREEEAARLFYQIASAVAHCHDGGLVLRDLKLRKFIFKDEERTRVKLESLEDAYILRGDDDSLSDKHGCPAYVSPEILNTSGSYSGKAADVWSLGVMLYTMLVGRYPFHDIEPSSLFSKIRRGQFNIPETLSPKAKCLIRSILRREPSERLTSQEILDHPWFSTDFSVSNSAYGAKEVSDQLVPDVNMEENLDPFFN
Briefly: Inhibition of human recombinant Trb2 at 15 nM related to control ULK1.

SMILES strings stand for the structures.

Chain of Mitogen-activated protein kinase kinase kinase 9 (Homo sapiens) (P80192 whole entry, looked up, the tested form may be a part): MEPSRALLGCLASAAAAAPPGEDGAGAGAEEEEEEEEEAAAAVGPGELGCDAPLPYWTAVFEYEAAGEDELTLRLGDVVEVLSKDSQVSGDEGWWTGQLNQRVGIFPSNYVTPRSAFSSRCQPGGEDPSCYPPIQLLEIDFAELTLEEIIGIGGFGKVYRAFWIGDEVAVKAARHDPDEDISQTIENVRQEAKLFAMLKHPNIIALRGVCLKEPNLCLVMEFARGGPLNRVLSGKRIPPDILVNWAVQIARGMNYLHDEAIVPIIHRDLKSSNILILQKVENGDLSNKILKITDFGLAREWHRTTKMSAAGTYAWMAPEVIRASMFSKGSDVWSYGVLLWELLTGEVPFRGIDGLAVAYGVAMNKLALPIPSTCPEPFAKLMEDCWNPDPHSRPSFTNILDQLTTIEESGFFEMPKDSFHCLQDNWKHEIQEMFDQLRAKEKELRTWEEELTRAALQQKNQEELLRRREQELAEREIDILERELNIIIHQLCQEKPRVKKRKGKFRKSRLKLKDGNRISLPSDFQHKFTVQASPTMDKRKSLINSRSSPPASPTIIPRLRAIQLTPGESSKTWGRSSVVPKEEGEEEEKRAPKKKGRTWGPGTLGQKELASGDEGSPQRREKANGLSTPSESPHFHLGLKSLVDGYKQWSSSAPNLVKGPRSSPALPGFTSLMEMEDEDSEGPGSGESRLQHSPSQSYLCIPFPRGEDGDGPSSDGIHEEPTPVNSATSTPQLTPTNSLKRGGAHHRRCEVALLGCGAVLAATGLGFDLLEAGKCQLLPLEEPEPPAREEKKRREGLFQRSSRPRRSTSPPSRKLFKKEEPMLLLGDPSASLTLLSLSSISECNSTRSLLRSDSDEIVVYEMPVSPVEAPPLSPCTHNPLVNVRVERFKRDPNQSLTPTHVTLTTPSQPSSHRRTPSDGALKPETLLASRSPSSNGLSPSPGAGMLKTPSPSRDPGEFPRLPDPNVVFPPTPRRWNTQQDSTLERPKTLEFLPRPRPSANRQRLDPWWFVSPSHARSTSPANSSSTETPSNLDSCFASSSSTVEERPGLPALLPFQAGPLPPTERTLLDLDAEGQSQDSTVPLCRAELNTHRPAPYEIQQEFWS
Chain of 3-phosphoinositide-dependent protein kinase 1 (Homo sapiens) (O15530 whole entry, looked up): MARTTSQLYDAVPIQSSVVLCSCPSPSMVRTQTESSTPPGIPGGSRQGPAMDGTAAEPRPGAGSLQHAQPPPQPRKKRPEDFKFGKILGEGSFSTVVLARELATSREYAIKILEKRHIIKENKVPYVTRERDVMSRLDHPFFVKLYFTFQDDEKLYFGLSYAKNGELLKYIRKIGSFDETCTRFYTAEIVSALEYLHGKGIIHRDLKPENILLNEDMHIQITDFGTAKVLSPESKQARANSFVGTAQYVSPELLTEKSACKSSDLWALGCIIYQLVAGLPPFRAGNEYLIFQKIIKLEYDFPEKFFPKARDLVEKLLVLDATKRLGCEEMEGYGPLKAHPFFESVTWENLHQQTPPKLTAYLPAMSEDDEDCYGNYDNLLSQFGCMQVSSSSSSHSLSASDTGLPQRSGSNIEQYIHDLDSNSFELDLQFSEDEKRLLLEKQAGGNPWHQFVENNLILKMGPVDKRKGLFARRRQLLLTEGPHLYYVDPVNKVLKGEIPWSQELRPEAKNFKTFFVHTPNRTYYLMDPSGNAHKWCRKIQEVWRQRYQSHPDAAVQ
Chain of PAS domain-containing serine/threonine-protein kinase (Homo sapiens) (Q96RG2 whole entry, the tested form may be a part, canonical isoform): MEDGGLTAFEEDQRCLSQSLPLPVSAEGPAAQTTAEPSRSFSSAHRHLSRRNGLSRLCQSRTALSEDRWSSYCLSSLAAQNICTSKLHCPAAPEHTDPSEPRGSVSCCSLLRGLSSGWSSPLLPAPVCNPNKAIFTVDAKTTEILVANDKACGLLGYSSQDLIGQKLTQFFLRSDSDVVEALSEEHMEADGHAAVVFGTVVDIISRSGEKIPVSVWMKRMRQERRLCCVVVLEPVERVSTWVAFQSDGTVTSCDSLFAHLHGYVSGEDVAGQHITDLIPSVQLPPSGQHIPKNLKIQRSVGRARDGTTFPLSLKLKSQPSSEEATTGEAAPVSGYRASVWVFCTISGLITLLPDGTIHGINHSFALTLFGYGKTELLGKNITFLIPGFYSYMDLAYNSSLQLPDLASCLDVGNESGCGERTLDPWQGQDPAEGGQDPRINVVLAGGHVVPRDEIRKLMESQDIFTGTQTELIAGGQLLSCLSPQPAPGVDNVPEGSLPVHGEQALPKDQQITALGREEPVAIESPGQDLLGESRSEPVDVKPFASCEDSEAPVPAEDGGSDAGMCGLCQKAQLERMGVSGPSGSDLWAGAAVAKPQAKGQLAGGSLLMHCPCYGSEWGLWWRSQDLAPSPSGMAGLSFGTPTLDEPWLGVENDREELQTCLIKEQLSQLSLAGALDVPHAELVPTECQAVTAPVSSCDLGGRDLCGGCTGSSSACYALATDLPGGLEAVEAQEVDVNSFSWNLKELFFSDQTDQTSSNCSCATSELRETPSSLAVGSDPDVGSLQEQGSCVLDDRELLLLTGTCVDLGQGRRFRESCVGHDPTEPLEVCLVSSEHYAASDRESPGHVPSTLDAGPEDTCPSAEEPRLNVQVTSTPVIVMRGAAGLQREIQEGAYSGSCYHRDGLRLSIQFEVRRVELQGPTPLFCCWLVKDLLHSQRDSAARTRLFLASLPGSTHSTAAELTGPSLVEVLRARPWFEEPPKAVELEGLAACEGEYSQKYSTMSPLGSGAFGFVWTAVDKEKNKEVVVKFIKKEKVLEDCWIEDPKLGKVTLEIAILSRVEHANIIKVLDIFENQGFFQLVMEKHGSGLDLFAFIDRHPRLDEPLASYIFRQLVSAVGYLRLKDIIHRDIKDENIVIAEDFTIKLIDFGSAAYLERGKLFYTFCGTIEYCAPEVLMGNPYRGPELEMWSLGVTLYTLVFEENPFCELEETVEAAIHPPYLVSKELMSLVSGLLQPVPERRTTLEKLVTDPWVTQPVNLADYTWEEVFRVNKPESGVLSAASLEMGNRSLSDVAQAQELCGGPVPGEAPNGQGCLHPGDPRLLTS
Chain of Rho-associated protein kinase 2 (Homo sapiens) (O75116 whole entry, looked up): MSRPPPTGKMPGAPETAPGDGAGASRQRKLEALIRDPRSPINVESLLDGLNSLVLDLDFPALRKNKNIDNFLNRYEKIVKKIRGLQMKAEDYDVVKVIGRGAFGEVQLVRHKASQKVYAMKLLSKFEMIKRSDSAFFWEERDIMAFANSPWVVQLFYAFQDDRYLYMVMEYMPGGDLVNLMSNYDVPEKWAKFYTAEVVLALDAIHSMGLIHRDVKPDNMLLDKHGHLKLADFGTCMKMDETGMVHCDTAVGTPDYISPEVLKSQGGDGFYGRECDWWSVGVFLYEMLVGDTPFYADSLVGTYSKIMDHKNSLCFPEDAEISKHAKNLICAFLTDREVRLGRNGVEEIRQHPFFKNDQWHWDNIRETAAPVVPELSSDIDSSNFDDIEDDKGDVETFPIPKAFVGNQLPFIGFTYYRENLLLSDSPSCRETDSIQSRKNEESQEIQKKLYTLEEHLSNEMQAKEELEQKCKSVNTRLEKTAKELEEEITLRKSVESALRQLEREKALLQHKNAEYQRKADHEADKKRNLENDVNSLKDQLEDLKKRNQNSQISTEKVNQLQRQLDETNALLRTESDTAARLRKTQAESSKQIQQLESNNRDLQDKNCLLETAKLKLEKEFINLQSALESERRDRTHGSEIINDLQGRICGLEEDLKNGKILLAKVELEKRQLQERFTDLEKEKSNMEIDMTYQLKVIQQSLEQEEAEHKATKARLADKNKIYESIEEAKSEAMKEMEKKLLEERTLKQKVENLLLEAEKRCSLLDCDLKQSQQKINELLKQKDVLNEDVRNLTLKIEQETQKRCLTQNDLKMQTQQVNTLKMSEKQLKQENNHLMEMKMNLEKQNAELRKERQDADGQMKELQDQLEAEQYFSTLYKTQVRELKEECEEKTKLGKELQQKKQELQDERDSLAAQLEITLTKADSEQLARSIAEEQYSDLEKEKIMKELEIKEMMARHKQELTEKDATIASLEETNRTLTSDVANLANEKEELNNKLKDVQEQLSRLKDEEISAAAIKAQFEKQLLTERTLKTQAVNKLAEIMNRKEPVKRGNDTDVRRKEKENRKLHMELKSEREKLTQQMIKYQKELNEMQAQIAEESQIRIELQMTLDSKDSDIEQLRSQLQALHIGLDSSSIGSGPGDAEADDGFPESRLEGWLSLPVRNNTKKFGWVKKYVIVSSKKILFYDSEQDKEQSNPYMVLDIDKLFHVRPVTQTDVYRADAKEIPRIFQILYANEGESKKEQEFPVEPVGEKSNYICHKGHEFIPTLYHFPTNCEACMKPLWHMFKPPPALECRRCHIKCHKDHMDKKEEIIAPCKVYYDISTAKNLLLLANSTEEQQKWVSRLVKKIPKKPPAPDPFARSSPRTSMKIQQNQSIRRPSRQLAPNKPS
Chain of RAC-alpha serine/threonine-protein kinase (Homo sapiens) (P31749 whole entry): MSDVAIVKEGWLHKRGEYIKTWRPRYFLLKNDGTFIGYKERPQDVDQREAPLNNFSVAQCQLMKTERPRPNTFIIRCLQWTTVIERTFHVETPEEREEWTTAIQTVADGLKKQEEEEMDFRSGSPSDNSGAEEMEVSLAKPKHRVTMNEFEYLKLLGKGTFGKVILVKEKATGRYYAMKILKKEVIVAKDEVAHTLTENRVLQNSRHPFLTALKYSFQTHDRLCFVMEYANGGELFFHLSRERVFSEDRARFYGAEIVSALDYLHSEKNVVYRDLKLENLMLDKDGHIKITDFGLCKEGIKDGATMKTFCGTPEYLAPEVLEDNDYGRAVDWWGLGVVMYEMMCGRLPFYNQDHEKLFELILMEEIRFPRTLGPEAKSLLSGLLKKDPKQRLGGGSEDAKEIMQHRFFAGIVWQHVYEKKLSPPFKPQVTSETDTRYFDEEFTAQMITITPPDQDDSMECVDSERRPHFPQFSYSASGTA

In the case of `O=C(N[C@@H](C1CC1)C(F)(F)F)c1cc(-c2cnn3cc(-c4ccc(F)cc4)cnc23)cs1`, the fold change (FC) in assay [1] came to 0.1; in assay [2] it was 0.16; in assay [3], 0; in [4], 0.03. Besides, in assay [5], the inhibition turned out to be 0%.
Turning to `CNC(=O)c1ccccc1Oc1nc(Nc2cc(OC)c(OC)c(OC)c2)ncc1Br`, the inhibition in assay [6] was 48%. The fold change (FC) in assay [7] turned out to be 0; in [8], 0.03.
For `CC(C)[C@H](NC(=O)c1cc(-c2cnn3cc(-c4ccc(OCCN5CCCCC5)cc4)cnc23)cs1)C(F)(F)F`, in [9], the fold change (FC) worked out at 0.41.

As usually defined, the inhibition is the percentage by which the read-out fell short of the control.
